Results on 38 molecules are retold here after ChEMBL document CHEMBL4303773 (Nature, 2020).

Activity calls are given as the source filed them. The calls are words filed in the database; no cut-off is given here.

In series [1] the test system is Vero C1008. Briefly: (§1) Cytotoxicity of compound against Vero E6 cells by MTT assay. To be noted: chlorocebus sabaeus, vero c1008. On the technique in general: Formazan colour is commonly taken as a measure of viable cells.
The test system of series [2] is SARS-CoV-2. Briefly: microbe, parasite or virus in culture. In kind it is functional, organism-based, Chlorocebus sabaeus. To be noted: Severe acute respiratory syndrome coronavirus 2, Vero C1008, 48 h.
Series [3] concerns SARS-CoV-2. To be noted: Chlorocebus sabaeus; Vero C1008.
Series [4] is described as follows: as §1. Conditions: chlorocebus sabaeus, Vero E6 cells.
Series [5] concerns Vero C1008. Briefly: AUC (cytotoxicity %) of compound against Vero E6 cells by MTT assay. In kind it is toxicity, cell-based. Conditions: chlorocebus sabaeus.

As usually defined, the pCC50 is the negative decadic logarithm of the CC50, by convention in mol/L. In the series with Vero C1008 [1], `O=C(O)/C(Cc1ccccc1[N+](=O)[O-])=N\Nc1nc(-c2ccc(Cl)c(Cl)c2)cs1` yielded a pCC50 of 4.32. As a reminder, the IC50 is the midpoint of a concentration-inhibition curve. `CC(=O)Oc1ccccc1C(=O)Nc1ncc([N+](=O)[O-])s1` [NITAZOXANIDE] gave an IC50 with SARS-CoV-2 [2] of 2820 nM. In turn, `O=C(c1ccc(-n2nnc3cccnc32)cc1)N(c1ncccc1Cl)[C@@H]1CCCNC1` showed a pCC50 in the series on Vero C1008 [1] of 5.61. In addition, the midpoint of inhibition with SARS-CoV-2 [2], the IC50, lay at 7590 nM. For the molecule `N=C(N)Nc1ccc(C(=O)Oc2ccc3cc(C(=N)N)ccc3c2)cc1` [NAFAMOSTAT], the IC50 in the series on SARS-CoV-2 [2] was ~39800 nM (inactive). The AUC with SARS-CoV-2 [3] is 302. For orientation: CC50 means the concentration giving 50% cytotoxicity. In turn, `CCNC(=O)c1noc(-c2cc(C(C)C)c(O)cc2O)c1-c1ccc(CN2CCOCC2)cc1` [LUMINESPIB] had a CC50 in series [4] of roughly 67.6 nM. For the same molecule, the AUC cytotoxicity in the series on Vero C1008 [5] was 161.6. Also, in the series on SARS-CoV-2 [3], the AUC was found to be 172.

In turn, `COc1ccc(-c2sc(NC(=O)C(C)(C)C)nc2C)cc1S(=O)(=O)Nc1ccc(O)cc1` came in with a pCC50 in the series with Vero C1008 [1] of 5.25. In the case of `Cc1cc2c(s1)Nc1ccccc1N=C2N1CCN(C)CC1` [OLANZAPINE], in series [4], the CC50 was ~2880 nM (inactive). In the case of `CC(C)n1nc(-c2ccc3oc(N)nc3c2)c2c(N)ncnc21` [SAPANISERTIB], the 50% cytotoxic concentration (CC50) in series [4] is 1.24 nM. Moreover, the AUC cytotoxicity with Vero C1008 [5] was 102. The AUC in the series on SARS-CoV-2 [3] was 329.

Molecule `O=c1[nH]c(=O)n([C@H]2C[C@H](O)[C@@H](CO)O2)cc1/C=C/Br` [BRIVUDINE] gave an AUC cytotoxicity in the series on Vero C1008 [5] of 244.3. Besides, the AUC in the series with SARS-CoV-2 [3] was 255. Turning to `Clc1ccc(C(OCCN2CCCCC2)c2ccccc2)cc1` (stereo not drawn) [CLOPERASTINE], the CC50 in series [4] is ~661 nM (active).

Take `Cc1noc2c1-c1ccccc1C(c1ccc(Cl)cc1)=N[C@H]2CC(N)=O` [PELABRESIB]: the CC50 in series [4] was ~42.7 nM (inactive). In the series with Vero C1008 [5], this molecule returned an AUC cytotoxicity of 193.2. The AUC in the series with SARS-CoV-2 [3] was 249. `Cc1cc(Nc2cc(N)ncn2)c(=O)n2c1C(=O)NC21CCCCC1` [TOMIVOSERTIB]: in the series on Vero C1008 [1], the pCC50 worked out at 5.26. In addition, the AUC cytotoxicity in the series on Vero C1008 [5] is on record as 245.9. The AUC in the series on SARS-CoV-2 [3] is 231. With `NC(=O)c1ncn([C@@H]2O[C@H](CO)[C@@H](O)[C@H]2O)n1` [RIBAVIRIN], the CC50 in series [4] was ~21700 nM (inactive). In the series with Vero C1008 [1], `CC[C@H](C)C(=O)O[C@H]1C[C@@H](C)C=C2C=C[C@H](C)[C@H](CC[C@@H]3C[C@@H](O)CC(=O)O3)[C@H]21` [LOVASTATIN] gave a pCC50 of 5.4. Molecule `COc1cccc2c(NCc3ccccc3)nc(-n3c(N)nc4ccccc43)nc12` yielded a pCC50 in the series on Vero C1008 [1] of 2.936. This molecule also gave an AUC cytotoxicity in the series with Vero C1008 [5] of 175.5. For the same molecule, in the series with SARS-CoV-2 [3], the AUC was 223. For `COC(=O)C1(c2ccc(C)cc2)CC1CN1CCC(O)(c2ccccc2)CC1` (stereo not drawn), the CC50 in series [4] was ~4000 nM (inactive). Take `Cc1ncsc1-c1ccc(CNC(=O)[C@@H]2C[C@@H](O)CN2C(=O)[C@@H](NC(=O)COCCOCCOCCNC(=O)C[C@@H]2N=C(c3ccc(Cl)cc3)c3c(sc(C)c3C)-n3c(C)nnc32)C(C)(C)C)cc1`: in series [4], it took 300 nM to reach half-maximal cytotoxicity (CC50).

Turning to `NCCCC[C@H](N[C@@H](CCc1ccccc1)C(=O)O)C(=O)N1CCC[C@H]1C(=O)O` [LISINOPRIL ANHYDROUS], in series [4], the CC50 is ~8320 nM (inactive).

Regarding `Cc1cc(OCCN2CCOCC2)nn1-c1ccc2ccccc2c1`, the CC50 in series [4] was ~7620 nM (inactive). Molecule `O=C(O)c1ccc2c(c1)nc(Nc1cccc(Cl)c1)c1ccncc12` [SILMITASERTIB] registered a pCC50 in the series with Vero C1008 [1] of 5.5. The AUC cytotoxicity in the series with Vero C1008 [5] came out at 225.5. The AUC with SARS-CoV-2 [3] is 216. In the series with Vero C1008 [1], `C[C@@H]1CN(CCCn2c3ccccc3c3ccccc32)C[C@H](C)N1` [RIMCAZOLE] registered a pCC50 of 2.24. The same molecule gave an AUC cytotoxicity with Vero C1008 [5] of 215.6. In turn, `CC(C)c1cc(C(=O)N2Cc3ccc(CN4CCN(C)CC4)cc3C2)c(O)cc1O` [ONALESPIB] showed a CC50 in series [4] of roughly 1.66 nM. The molecule also returned an AUC cytotoxicity with Vero C1008 [5] of 170.7. The molecule further showed an AUC in the series on SARS-CoV-2 [3] of 177. For the molecule `Cc1cc2c(C(N)=O)cccc2n1-c1nc2c(c(NCc3ccccc3)n1)COCC2` [CB-5083], in the series on SARS-CoV-2 [3], the AUC was 280. `CN(C)C(=O)COC(=O)Cc1ccc(OC(=O)c2ccc(NC(=N)N)cc2)cc1` [CAMOSTAT]: the CC50 in series [4] is ~3630 nM (inactive). In addition, the AUC cytotoxicity in the series with Vero C1008 [5] is given as 276.3. Besides, the AUC in the series with SARS-CoV-2 [3] is 251. With `CCCC(CCC)C(=O)O` [VALPROIC ACID], the AUC cytotoxicity with Vero C1008 [5] is 235.1. In the series with SARS-CoV-2 [3], the AUC was 300. On to `C[C@@H](C1CCCCC1)n1c(-c2cc3c(cc2Br)OCO3)nc2cc(C(=O)Nc3ccc(C#N)cc3)ccc21`, for which the CC50 in series [4] was ~102 nM (inactive). In addition, the AUC cytotoxicity in the series on Vero C1008 [5] came to 261.6. The AUC with SARS-CoV-2 [3] is 227.

For `CN(C)C(=N)NC(=N)N` [METFORMIN], the IC50 in the series on SARS-CoV-2 [2] was roughly 2860 nM. Moreover, in the series on SARS-CoV-2 [3], the AUC was 293. For `O=c1[nH]c2ccccc2n1C1CCN(CCCC(c2ccc(F)cc2)c2ccc(F)cc2)CC1` [PIMOZIDE], in the series on Vero C1008 [1], the pCC50 is recorded as 6.13. The molecule `N#CC[C@H](C1CCCC1)n1cc(-c2ncnc3[nH]ccc23)cn1` [RUXOLITINIB] registered an AUC cytotoxicity with Vero C1008 [5] of 248.3. In addition, in the series with SARS-CoV-2 [3], the AUC was 316.

`COc1cccc2c1C(=O)c1c(O)c3c(c(O)c1C2=O)C[C@@](O)(C(C)=O)C[C@@H]3O[C@H]1C[C@H](N)[C@H](O)[C@H](C)O1` [DAUNORUBICIN] had a concentration for half-maximal inhibition (IC50) in the series with SARS-CoV-2 [2] of roughly 214 nM. As for `COc1cc(OC)c2c(=O)[nH]c(-c3cc(C)c(OCCO)c(C)c3)nc2c1` [APABETALONE], in series [4], the CC50 was ~207 nM (inactive). The same molecule returned an AUC cytotoxicity with Vero C1008 [5] of 281.9. In the series with SARS-CoV-2 [3], the AUC is 293. `CC(C)CC(=O)N[C@H](C(=O)N[C@H](C(=O)N[C@@H](CC(C)C)[C@@H](O)CC(=O)N[C@@H](C)C(=O)N[C@@H](CC(C)C)[C@@H](O)CC(=O)O)C(C)C)C(C)C` [PEPSTATIN]: the CC50 in series [4] is ~19.5 nM (inactive). The molecule further displayed an AUC cytotoxicity with Vero C1008 [5] of 262.3. Also, the AUC with SARS-CoV-2 [3] is 313. Turning to `COc1ccc2c(c1)[C@]13CCCC[C@@H]1[C@H](C2)N(C)CC3` [DEXTROMETHORPHAN], the CC50 in series [4] was roughly 871 nM. Besides, the AUC cytotoxicity in the series on Vero C1008 [5] came to 296.5. Moreover, in the series with SARS-CoV-2 [3], the AUC is 271. Take `C[C@H](CS)C(=O)N1CCC[C@H]1C(=O)O` [CAPTOPRIL]: in series [4], the CC50 is ~1230 nM (inactive). Also, the AUC cytotoxicity with Vero C1008 [5] is recorded as 271.9. For the same molecule, in the series on SARS-CoV-2 [3], the AUC is 276. As to `CO[C@H]1C[C@@H]2CC[C@@H](C)[C@@](O)(O2)C(=O)C(=O)N2CCCC[C@H]2C(=O)O[C@H]([C@H](C)C[C@@H]2CC[C@@H](O)[C@H](OC)C2)CC(=O)[C@H](C)/C=C(\C)[C@@H](O)[C@@H](OC)C(=O)[C@H](C)C[C@H](C)/C=C/C=C/C=C/1C` [SIROLIMUS], the CC50 in series [4] is roughly 0.479 nM. Consider `c1ccc(CNc2nc(NCc3ccccc3)c3ccccc3n2)cc1`, for which the pCC50 in the series on Vero C1008 [1] is 5.19. As to `Cc1sc2c(c1C)C(c1ccc(Cl)cc1)=N[C@@H](CC(=O)OC(C)(C)C)c1nnc(C)n1-2`, the CC50 in series [4] was roughly 66.8 nM. With `CCc1ccc(CCOc2ccc(CC3SC(=O)NC3=O)cc2)nc1` (stereo not drawn) [PIOGLITAZONE], the CC50 in series [4] was ~3630 nM (inactive). The same molecule showed an AUC cytotoxicity with Vero C1008 [5] of 236.6. Moreover, the AUC with SARS-CoV-2 [3] is 272.
